Measured values reported in paper PMC6723439, “The Aryl Hydrocarbon Receptor (AhR) Mediates the Counter-Regulatory Effects of Pelargonidins in Models of Inflammation and Metabolic Dysfunctions” (Nutrients, 2019).

Legend:
[1] = biological target: T1, aryl hydrocarbon receptor (AhR) (Homo sapiens, UniProt P35869); assay: AhR luciferase reporter transactivation in AhR-transfected HepG2 cells; format: cell-based
T1 construct: pCMVXL4AhR transfected in HepG2 cells
T1 sequence (P35869 11-848): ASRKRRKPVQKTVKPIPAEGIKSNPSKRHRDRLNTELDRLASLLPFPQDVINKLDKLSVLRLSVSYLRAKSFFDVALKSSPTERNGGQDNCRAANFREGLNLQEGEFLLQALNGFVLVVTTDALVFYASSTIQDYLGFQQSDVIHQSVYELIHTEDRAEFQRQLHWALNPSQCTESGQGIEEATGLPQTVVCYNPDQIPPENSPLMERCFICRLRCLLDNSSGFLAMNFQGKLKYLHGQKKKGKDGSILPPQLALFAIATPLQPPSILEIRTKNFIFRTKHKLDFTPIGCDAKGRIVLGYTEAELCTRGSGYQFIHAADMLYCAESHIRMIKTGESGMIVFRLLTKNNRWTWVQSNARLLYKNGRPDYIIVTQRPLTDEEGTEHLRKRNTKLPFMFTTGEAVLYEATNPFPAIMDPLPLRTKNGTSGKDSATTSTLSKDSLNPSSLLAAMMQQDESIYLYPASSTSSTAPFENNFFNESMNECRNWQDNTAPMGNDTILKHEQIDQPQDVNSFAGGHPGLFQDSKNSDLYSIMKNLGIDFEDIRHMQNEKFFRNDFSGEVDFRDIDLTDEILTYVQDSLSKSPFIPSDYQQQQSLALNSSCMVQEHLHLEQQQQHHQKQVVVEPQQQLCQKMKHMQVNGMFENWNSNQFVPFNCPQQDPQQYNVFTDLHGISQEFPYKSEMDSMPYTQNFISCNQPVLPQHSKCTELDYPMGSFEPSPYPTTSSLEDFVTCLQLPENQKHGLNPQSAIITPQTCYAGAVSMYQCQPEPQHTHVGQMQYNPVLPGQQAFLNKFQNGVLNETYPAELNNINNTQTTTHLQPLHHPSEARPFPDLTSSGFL

[2] = biological target: T1, aryl hydrocarbon receptor (AhR); assay: AhR luciferase reporter transactivation in AhR-transfected HepG2 cells; effects lost in AhR-/- macrophages; format: cell-based

| EC50 [2] | SMILES | EC50 [1] |
| --- | --- | --- |
| – | Oc1ccc(-c2[o+]c3cc(O)cc(O)c3cc2O)cc1 [P, pelargonidin] | 4 µM |
| 1970 nM | COc1ccc(-c2[o+]c3cc(OC)cc(OC)c3cc2O)cc1 [Mt-P, methylated pelargonidin] | – |
